Data: ChEMBL document CHEMBL3822455, “Aryl or heteroaryl substituted aminal derivatives of HCV NS5A inhibitor MK-8742” (Bioorg Med Chem Lett, 2016)

Tests used:
Hepatitis C virus [1] = experiment: Antiviral activity against HCV genotype 4a assessed as replicon RNA level measured after 3 days by real-time PCR method; type: functional, organism-based, Hepacivirus hominis; details: 72 h
Hepatitis C virus [2] = experiment: Antiviral activity against HCV genotype 3a assessed as replicon RNA level measured after 3 days by real-time PCR method; type: functional, organism-based, Hepacivirus hominis; details: 72 h
Hepatitis C virus [3] = experiment: Antiviral activity against HCV genotype 1a harboring NS5A L31V mutant assessed as replicon RNA level measured after 3 days by real-time PCR method; type: functional, organism-based, Hepacivirus hominis; details: subtype 1a, 72 h
Hepatitis C virus [4] = experiment: Antiviral activity against HCV genotype 1a assessed as replicon RNA level measured after 3 days by real-time PCR method; type: functional, organism-based, Hepacivirus hominis; details: subtype 1a, 72 h
[5] = (§1) Oral bioavailability in Sprague-Dawley rat at 5 mg/kg; type: ADME, organism-based; details: Sprague-Dawley, in vivo
Hepatitis C virus [6] = experiment: Antiviral activity against HCV genotype 2a assessed as replicon RNA level measured after 3 days by real-time PCR method; type: functional, organism-based, Hepacivirus hominis; details: 72 h
Hepatitis C virus [7] = experiment: Antiviral activity against HCV genotype 2b assessed as replicon RNA level measured after 3 days by real-time PCR method; type: functional, organism-based, Hepacivirus hominis; details: 72 h
[8] = Half life in Sprague-Dawley rat at 2 mg/kg, iv or 5 mg/kg, po; type: ADME, organism-based; details: in vivo
Hepatitis C virus [9] = experiment: Antiviral activity against HCV genotype 1a harboring NS5A Y93H mutant assessed as replicon RNA level measured after 3 days by real-time PCR method; type: functional, organism-based, Hepacivirus hominis; details: subtype 1a, 72 h
[10] = Clearance in Sprague-Dawley rat at 2 mg/kg, iv or 5 mg/kg, po; type: ADME, organism-based; details: in vivo
[11] = (§2) AUC in Sprague-Dawley rat at 5 mg/kg, po; type: ADME, organism-based; details: Sprague-Dawley, in vivo
Hepatitis C virus [12] = experiment: Antiviral activity against HCV genotype 1b assessed as replicon RNA level measured after 3 days by real-time PCR method; type: functional, organism-based, Hepacivirus hominis; details: 72 h
Canis familiaris [13] = experiment: AUC in beagle dog at 5 mg/kg, po; type: ADME, organism-based, Canis lupus familiaris; details: in vivo
[14] = Half life in beagle dog at 2 mg/kg, iv or 5 mg/kg, po; type: ADME, organism-based, Canis lupus familiaris; details: in vivo
Rattus norvegicus [15] = experiment: as §1; type: ADME, organism-based; details: in vivo
Canis familiaris [16] = experiment: Oral bioavailability in beagle dog at 5 mg/kg; type: ADME, organism-based, Canis lupus familiaris; details: in vivo
Rattus norvegicus [17] = experiment: as §2; type: ADME, organism-based; details: in vivo
[18] = Selectivity ratio of EC50 for HCV genotype 2b to EC50 for HCV genotype 1a; type: functional
Hepatitis C virus [19] = experiment: Selectivity ratio of EC50 for HCV genotype 1a harboring NS5A Y93H mutant to EC50 for HCV genotype 1a; type: functional, Hepacivirus hominis, subtype 1a
Hepatitis C virus [20] = experiment: Selectivity ratio of EC50 for HCV genotype 1a harboring NS5A L31V mutant to EC50 for HCV genotype 1a; type: functional, Hepacivirus hominis, subtype 1a

Row | SMILES | EC50 (Hepatitis C virus [1]) [nM] | EC50 (Hepatitis C virus [2]) [nM] | EC50 (Hepatitis C virus [3]) [nM] | EC50 (Hepatitis C virus [4]) [nM] | bioavailability [5] [%] | EC50 (Hepatitis C virus [6]) [nM] | EC50 (Hepatitis C virus [7]) [nM] | half-life [8] [h] | EC50 (Hepatitis C virus [9]) [nM] | clearance [10] [mL/min/kg] | AUC [11] [µM·h] | EC50 (Hepatitis C virus [12]) [nM] | AUC (Canis familiaris [13]) [µM·h] | half-life [14] [h] | F (Rattus norvegicus [15]) [%] | F (Canis familiaris [16]) [%] | AUC (Rattus norvegicus [17]) [µM·h] | Ratio EC50 [18] | Ratio EC50 (Hepatitis C virus [19]) | Ratio EC50 (Hepatitis C virus [20])
1 | COC(=O)N[C@H](C(=O)N1CCC[C@H]1c1ncc(-c2ccc3c(c2)OC(c2cc(F)cc(F)c2)n2c-3cc3cc(-c4cnc([C@@H]5CCCN5C(=O)[C@@H](NC(=O)OC)C(C)C)[nH]4)ccc32)[nH]1)C(C)C (some centres undefined) | 0.004 | 0.09 | 0.3 | 0.011 | 15 | 0.02 | 0.5 | 5.1 | 4 | 9 | 1.5 | 0.01 | – | – | – | – | – | – | – | –
2 | COC(=O)N[C@H](C(=O)N1CCC[C@H]1c1ncc(-c2ccc3c(c2)OC(c2cccc(OC)c2)n2c-3cc3cc(-c4cnc([C@@H]5CCCN5C(=O)[C@@H](NC(=O)OC)C(C)C)[nH]4)ccc32)[nH]1)C(C)C (mixture of isomers) | 0.002 | 0.02 | 0.04 | 0.004 | – | 0.004 | 0.4 | 4.6 | < 2 | – | – | 0.002 | 5 | 7.9 | 6 | 34 | 0.52 | – | – | –
3 | COC(=O)N[C@H](C(=O)N1CCC[C@H]1c1ncc(-c2ccc3c(c2)OC(c2cccc(Cl)c2)n2c-3cc3cc(-c4cnc([C@@H]5CCCN5C(=O)[C@@H](NC(=O)OC)C(C)C)[nH]4)ccc32)[nH]1)C(C)C (some centres undefined) | 0.002 | 0.03 | 0.1 | 0.003 | 12 | 0.01 | 0.4 | 4.1 | 3 | 8 | 1.4 | 0.002 | – | – | – | – | – | – | – | –
4 | COC(=O)N[C@H](C(=O)N1CCC[C@H]1c1ncc(-c2ccc3c(c2)OC(c2cccc(F)c2)n2c-3cc3cc(-c4cnc([C@@H]5CCCN5C(=O)[C@@H](NC(=O)OC)C(C)C)[nH]4)ccc32)[nH]1)C(C)C (some centres undefined) | 0.006 | 0.04 | 0.2 | 0.003 | 12 | 0.004 | 1 | 5.4 | 4 | 7 | 1.5 | 0.002 | – | – | – | – | – | – | – | –
5 | COC(=O)N[C@H](C(=O)N1CCC[C@H]1c1ncc(-c2ccc3c(c2)OC(c2ccc(OC(F)(F)F)cc2)n2c-3cc3cc(-c4cnc([C@@H]5CCCN5C(=O)[C@@H](NC(=O)OC)C(C)C)[nH]4)ccc32)[nH]1)C(C)C (mixture of isomers) | 0.2 | 0.03 | 0.2 | 0.005 | – | 0.005 | – | 6.3 | 3 | – | – | 0.011 | – | – | 7 | – | 1.1 | – | – | –
6 | COC(=O)N[C@H](C(=O)N1CCC[C@H]1c1ncc(-c2ccc3c(c2)OC(c2ccccc2F)n2c-3cc3cc(-c4cnc([C@@H]5CCCN5C(=O)[C@@H](NC(=O)OC)C(C)C)[nH]4)ccc32)[nH]1)C(C)C (some centres undefined) | 0.007 | 0.1 | 0.4 | 0.002 | 8 | 0.003 | 3 | 4.6 | 6 | 12 | 0.67 | 0.003 | – | – | – | – | – | – | – | –
7 | COC(=O)N[C@H](C(=O)N1CCC[C@H]1c1ncc(-c2ccc3c(c2)OC(c2ccc(Cl)cc2)n2c-3cc3cc(-c4cnc([C@@H]5CCCN5C(=O)[C@@H](NC(=O)OC)C(C)C)[nH]4)ccc32)[nH]1)C(C)C (some centres undefined) | 0.01 | 0.04 | 0.3 | 0.009 | 10 | 0.005 | – | 4.5 | 5 | 10 | 0.88 | 0.01 | – | – | – | – | – | – | – | –
8 | COC(=O)N[C@H](C(=O)N1CCC[C@H]1c1ncc(-c2ccc3c(c2)OC(c2cccnc2)n2c-3cc3cc(-c4cnc([C@@H]5CCCN5C(=O)[C@@H](NC(=O)OC)C(C)C)[nH]4)ccc32)[nH]1)C(C)C (mixture of isomers) | 0.03 | 2 | 0.9 | 0.005 | – | 0.04 | 2 | – | 7 | – | – | 0.009 | – | – | – | – | – | – | – | –
9 | CCc1cccc(C2Oc3cc(-c4cnc([C@@H]5CCCN5C(=O)[C@@H](NC(=O)OC)C(C)C)[nH]4)ccc3-c3cc4cc(-c5cnc([C@@H]6CCCN6C(=O)[C@@H](NC(=O)OC)C(C)C)[nH]5)ccc4n32)c1 (mixture of isomers) | 0.001 | 0.2 | 0.51 | 0.002 | – | 0.02 | 3 | – | 10 | – | – | 0.002 | – | – | – | – | – | – | – | –
10 | COC(=O)N[C@H](C(=O)N1CCC[C@H]1c1ncc(-c2ccc3c(c2)OC(c2cccc(C(=O)N(C)C)c2)n2c-3cc3cc(-c4cnc([C@@H]5CCCN5C(=O)[C@@H](NC(=O)OC)C(C)C)[nH]4)ccc32)[nH]1)C(C)C (mixture of isomers) | 0.18 | > 1 | 0.4 | 0.02 | – | 0.04 | 41 | – | > 100 | – | – | 0.01 | – | – | – | – | – | – | – | –
11 | COC(=O)N[C@H](C(=O)N1CCC[C@H]1c1ncc(-c2ccc3c(c2)OC(c2cc(OC)cc(OC)c2)n2c-3cc3cc(-c4cnc([C@@H]5CCCN5C(=O)[C@@H](NC(=O)OC)C(C)C)[nH]4)ccc32)[nH]1)C(C)C (mixture of isomers) | 0.01 | 0.02 | 0.3 | 0.003 | 0 | 0.002 | 0.2 | – | 0.8 | – | – | 0.002 | – | – | – | – | – | 67 | 267 | 100
